# ChEMBL document CHEMBL4665869, “New thiazolopyrimidine as anticancer agents: Synthesis, biological evaluation, DNA binding, molecular modeling and ADMET study” (Bioorg Med Chem Lett, 2020)
# Experiments:
# [1] = tested on: LOX IMVI; test: Growth inhibition of human LOX IMVI cells at 10 uM relative to control; format: functional; details: read-out: GI
# [2] = tested on: MDA-MB-468; test: Growth inhibition of human MDA-MB-468 cells at 10 uM relative to control; format: functional; details: read-out: GI
# [3] = tested on: T47D; test: Growth inhibition of human T47D cells at 10 uM relative to control; format: functional; details: read-out: GI
# [4] = tested on: CCRF-CEM; test: Growth inhibition of human CCRF-CEM cells at 10 uM relative to control; format: functional; details: read-out: GI
# [5] = tested on: HL-60(TB); test: Growth inhibition of human HL-60(TB) cells at 10 uM relative to control; format: functional; details: read-out: GI
# [6] = tested on: K562; test: Growth inhibition of human K562 cells at 10 uM relative to control; format: functional; details: read-out: GI
# [7] = tested on: MOLT-4; test: Growth inhibition of human MOLT-4 cells at 10 uM relative to control; format: functional; details: read-out: GI
# [8] = tested on: RPMI-8226; test: Growth inhibition of human RPMI-8226 cells at 10 uM relative to control; format: functional; details: read-out: GI
# [9] = tested on: SR; test: Growth inhibition of human SR cells at 10 uM relative to control; format: functional; details: read-out: GI
# [10] = tested on: A549; test: Growth inhibition of human A549 cells at 10 uM relative to control; format: functional; details: read-out: GI
# [11] = tested on: HOP-62; test: Growth inhibition of human HOP-62 cells at 10 uM relative to control; format: functional; details: read-out: GI
# [12] = tested on: HOP-92; test: Growth inhibition of human HOP-92 cells at 10 uM relative to control; format: functional; details: read-out: GI
# [13] = tested on: NCI-H226; test: Growth inhibition of human NCI-H226 cells at 10 uM relative to control; format: functional; details: read-out: GI
# [14] = tested on: NCI-H23; test: Growth inhibition of human NCI-H23 cells at 10 uM relative to control; format: functional; details: read-out: GI
# [15] = tested on: NCI-H322M; test: Growth inhibition of human NCI-H322M cells at 10 uM relative to control; format: functional; details: read-out: GI
# [16] = tested on: NCI-H460; test: Growth inhibition of human NCI-H460 cells at 10 uM relative to control; format: functional; details: read-out: GI
# [17] = tested on: NCI-H522; test: Growth inhibition of human NCI-H522 cells at 10 uM relative to control; format: functional; details: read-out: GI
# [18] = tested on: SW-620; test: Growth inhibition of human SW-620 cells at 10 uM relative to control; format: functional; details: read-out: GI
# [19] = tested on: COLO 205; test: Growth inhibition of human COLO 205 cells at 10 uM relative to control; format: functional; details: read-out: GI
# [20] = tested on: HCC 2998; test: Growth inhibition of human HCC 2998 cells at 10 uM relative to control; format: functional; details: read-out: GI
# [21] = tested on: HCT-116; test: Growth inhibition of human HCT-116 cells at 10 uM relative to control; format: functional; details: read-out: GI
# [22] = tested on: HCT-15; test: Growth inhibition of human HCT-15 cells at 10 uM relative to control; format: functional; details: read-out: GI
# [23] = tested on: HT-29; test: Growth inhibition of human HT-29 cells at 10 uM relative to control; format: functional; details: read-out: GI
# [24] = tested on: KM12; test: Growth inhibition of human KM12 cells at 10 uM relative to control; format: functional; details: read-out: GI
# [25] = tested on: SF-268; test: Growth inhibition of human SF-268 cells at 10 uM relative to control; format: functional; details: read-out: GI
# [26] = tested on: SF-295; test: Growth inhibition of human SF-295 cells at 10 uM relative to control; format: functional; details: read-out: GI
# [27] = tested on: SF-539; test: Growth inhibition of human SF-539 cells at 10 uM relative to control; format: functional; details: read-out: GI
# [28] = tested on: SNB-19; test: Growth inhibition of human SNB-19 cells at 10 uM relative to control; format: functional; details: read-out: GI
# [29] = tested on: SNB-75; test: Growth inhibition of human SNB-75 cells at 10 uM relative to control; format: functional; details: read-out: GI
# [30] = tested on: U-251; test: Growth inhibition of human U-251 cells at 10 uM relative to control; format: functional; details: read-out: GI
# [31] = tested on: Malme-3M; test: Growth inhibition of human Malme-3M cells at 10 uM relative to control; format: functional; details: read-out: GI
# [32] = tested on: M14; test: Growth inhibition of human M14 cells at 10 uM relative to control; format: functional; details: read-out: GI
# [33] = tested on: MDA-MB-435; test: Growth inhibition of human MDA-MB-435 cells at 10 uM relative to control; format: functional; details: read-out: GI
# [34] = tested on: SK-MEL-2; test: Growth inhibition of human SK-MEL-2 cells at 10 uM relative to control; format: functional; details: read-out: GI
# [35] = tested on: SK-MEL-28; test: Growth inhibition of human SK-MEL-28 cells at 10 uM relative to control; format: functional; details: read-out: GI
# [36] = tested on: SK-MEL-5; test: Growth inhibition of human SK-MEL-5 cells at 10 uM relative to control; format: functional; details: read-out: GI
# [37] = tested on: UACC-257; test: Growth inhibition of human UACC-257 cells at 10 uM relative to control; format: functional; details: read-out: GI
# [38] = tested on: UACC-62; test: Growth inhibition of human UACC-62 cells at 10 uM relative to control; format: functional; details: read-out: GI
# [39] = tested on: IGROV-1; test: Growth inhibition of human IGROV-1 cells at 10 uM relative to control; format: functional; details: read-out: GI
# [40] = tested on: OVCAR-4; test: Growth inhibition of human OVCAR-4 cells at 10 uM relative to control; format: functional; details: read-out: GI
# [41] = tested on: OVCAR-5; test: Growth inhibition of human OVCAR-5 cells at 10 uM relative to control; format: functional; details: read-out: GI
# [42] = tested on: OVCAR-8; test: Growth inhibition of human OVCAR-8 cells at 10 uM relative to control; format: functional; details: read-out: GI
# [43] = tested on: NCI/ADR-RES; test: Growth inhibition of human NCI/ADR-RES cells at 10 uM relative to control; format: functional; details: read-out: GI
# [44] = tested on: SK-OV-3; test: Growth inhibition of human SK-OV-3 cells at 10 uM relative to control; format: functional; details: read-out: GI
# [45] = tested on: 786-0; test: Growth inhibition of human 786-0 cells at 10 uM relative to control; format: functional; details: read-out: GI
# [46] = tested on: A498; test: Growth inhibition of human A498 cells at 10 uM relative to control; format: functional; details: read-out: GI
# [47] = tested on: ACHN; test: Growth inhibition of human ACHN cells at 10 uM relative to control; format: functional; details: read-out: GI
# [48] = tested on: CAKI-1; test: Growth inhibition of human CAKI-1 cells at 10 uM relative to control; format: functional; details: read-out: GI
# [49] = tested on: RXF 393; test: Growth inhibition of human RXF 393 cells at 10 uM relative to control; format: functional; details: read-out: GI
# [50] = tested on: SN12C; test: Growth inhibition of human SN12C cells at 10 uM relative to control; format: functional; details: read-out: GI
# [51] = tested on: TK-10; test: Growth inhibition of human TK-10 cells at 10 uM relative to control; format: functional; details: read-out: GI
# [52] = tested on: UO-31; test: Growth inhibition of human UO-31 cells at 10 uM relative to control; format: functional; details: read-out: GI
# [53] = tested on: PC-3; test: Growth inhibition of human PC-3 cells at 10 uM relative to control; format: functional; details: read-out: GI
# [54] = tested on: DU-145; test: Growth inhibition of human DU-145 cells at 10 uM relative to control; format: functional; details: read-out: GI
# [55] = tested on: MCF7; test: Growth inhibition of human MCF7 cells at 10 uM relative to control; format: functional; details: read-out: GI
# [56] = tested on: MDA-MB-231; test: Growth inhibition of human MDA-MB-231 cells at 10 uM relative to control; format: functional; details: read-out: GI
# [57] = tested on: Hs-578T; test: Growth inhibition of human Hs-578T cells at 10 uM relative to control; format: functional; details: read-out: GI
# [58] = tested on: BT-549; test: Growth inhibition of human BT-549 cells at 10 uM relative to control; format: functional; details: read-out: GI
# [59] = target: DNA; test: Displacement of methyl green from DNA (unknown origin) assessed as DNA intercalation after 24 hrs by colorimetric assay; format: nucleic-acid assay
smiles,measurement,setting,value
COc1ccc(/C=C/C2=CC(c3ccc(OC)cc3)N3C=CSC3=N2)cc1 (centres undefined),inhibition of growth at 10 µM,[1],< 10%
same,inhibition of growth at 10 µM,[2],< 10%
same,inhibition of growth at 10 µM,[3],< 10%
same,inhibition of growth at 10 µM,[4],< 10%
same,inhibition of growth at 10 µM,[5],< 10%
same,inhibition of growth at 10 µM,[6],< 10%
same,inhibition of growth at 10 µM,[7],< 10%
same,inhibition of growth at 10 µM,[8],< 10%
same,inhibition of growth at 10 µM,[9],< 10%
same,inhibition of growth at 10 µM,[10],< 10%
same,inhibition of growth at 10 µM,[11],< 10%
same,inhibition of growth at 10 µM,[12],10.1%
same,inhibition of growth at 10 µM,[13],< 10%
same,inhibition of growth at 10 µM,[14],< 10%
same,inhibition of growth at 10 µM,[15],< 10%
same,inhibition of growth at 10 µM,[16],< 10%
same,inhibition of growth at 10 µM,[17],< 10%
same,inhibition of growth at 10 µM,[18],< 10%
same,inhibition of growth at 10 µM,[19],< 10%
same,inhibition of growth at 10 µM,[20],< 10%
same,inhibition of growth at 10 µM,[21],< 10%
same,inhibition of growth at 10 µM,[22],< 10%
same,inhibition of growth at 10 µM,[23],< 10%
same,inhibition of growth at 10 µM,[24],< 10%
same,inhibition of growth at 10 µM,[25],< 10%
same,inhibition of growth at 10 µM,[26],< 10%
same,inhibition of growth at 10 µM,[27],< 10%
same,inhibition of growth at 10 µM,[28],< 10%
same,inhibition of growth at 10 µM,[29],< 10%
same,inhibition of growth at 10 µM,[30],< 10%
same,inhibition of growth at 10 µM,[31],< 10%
same,inhibition of growth at 10 µM,[32],< 10%
same,inhibition of growth at 10 µM,[33],< 10%
same,inhibition of growth at 10 µM,[34],< 10%
same,inhibition of growth at 10 µM,[35],< 10%
same,inhibition of growth at 10 µM,[36],< 10%
same,inhibition of growth at 10 µM,[37],11.9%
same,inhibition of growth at 10 µM,[38],< 10%
same,inhibition of growth at 10 µM,[39],< 10%
same,inhibition of growth at 10 µM,[40],< 10%
same,inhibition of growth at 10 µM,[41],< 10%
same,inhibition of growth at 10 µM,[42],< 10%
same,inhibition of growth at 10 µM,[43],< 10%
same,inhibition of growth at 10 µM,[44],< 10%
same,inhibition of growth at 10 µM,[45],< 10%
same,inhibition of growth at 10 µM,[46],< 10%
same,inhibition of growth at 10 µM,[47],< 10%
same,inhibition of growth at 10 µM,[48],< 10%
same,inhibition of growth at 10 µM,[49],< 10%
same,inhibition of growth at 10 µM,[50],< 10%
same,inhibition of growth at 10 µM,[51],< 10%
same,inhibition of growth at 10 µM,[52],< 10%
same,inhibition of growth at 10 µM,[53],17.2%
same,inhibition of growth at 10 µM,[54],< 10%
same,inhibition of growth at 10 µM,[55],< 10%
same,inhibition of growth at 10 µM,[56],< 10%
same,inhibition of growth at 10 µM,[57],< 10%
same,inhibition of growth at 10 µM,[58],< 10%
same,IC50,[59],47.75 µg/mL
